Laboratory results from BindingDB's records for doi:10.1016/S0960-894X(01)80395-4 (1994).

Target: Arachidonate 5-lipoxygenase (Cavia porcellus)
Experiment: Inhibitory activity against 5-lipoxygenase in guinea pig leukocytes was determined

IC50 [nM] | SMILES
180 | Cc1ccnc(N2CCN(CCC3Cn4c(-c5cc(C)c(O)c(C)c5)c(C)c5cc(O)cc(c54)O3)CC2)c1 (configuration not stated) [5-(4-Hydroxy-3,5-dimethyl-phenyl)-6-methyl-2-{2-[4-(4-methyl-pyridin-2-yl)-piperazin-1-yl]-ethyl}-2,3-dihydro-[1,4]oxazino[2,3,4-hi]indol-8-ol]
240 | COc1ccc2[nH]c(-c3cc(C)c(O)c(C)c3)c(C)c2c1 [TZI-41127]
